Results reported in US20100173853A1, “COMBINATION OF MONOSACCHARIDES WITH ASCORBIC ACID AND USE THEREOF” (L'OREAL, priority 2008, published 2010).
Entries after “also recorded” stand apart in the source; their conditions may differ.

What was measured:
[1] = test system: Collagen XII Cola12A1; assay: Expression of collagen XII alpha 1-chain by dermal fibroblasts (RNA); type: cell-based; details: human dermal fibroblasts; Rhamnose 1 mM, Vitamin C 50 μM, alone or associated; D3 or D5 not stated
Procedure: (§1) This example describes the synergic effect of the association of vitamin C with L-rhamnose on the expression of the alpha 1-chain of collagens VI and XII of the extracellular matrix.
(§2) Human dermal fibroblasts (used at the ninth passage) are obtained from mammary or abdominal surgeries. The culture medium implemented is DMEM, supplemented with: • fetal calf serum (FCS), 10% • L-Glutamine, 2 mM (Invitrogen 25030024), • Penicillin (50 UI/mL), streptomycin (50 μg/mL), (Invitrogen 15070063), • Sodium pyruvate (Invitrogen 11360039), and • Non essential amino acids (Invitrogen 11140035).
(§3) Fibroblasts are cultured (D0) in supplemented DMEM medium as described above, incubated at 37° C. znd 5% CO2 in an atmosphere saturated with water. After adhesion of the cells (D1), the culture medium is removed and replaced with medium containing vitamin C, L-rhamnose or their association. The different stimulation conditions (vitamin C 25 μM, 50 μM, Rhamnose 1 mM and the different associations) were performed in triplicate (12 well dish). Studies of the expression of the different collagenes were performed on D3 and D5.
(§4) For each condition and at each time (D3 and D5), the supernatants are removed and the cell lawns are lysed. […]
(§5) RNAs are then quantified in fluorescence according to the Ribogreen protocol (Quan-it, Ribogreen RNA assay kit, invitrogen R11490) and reading with Tecan Safire. […]

[2] = test system: Collagen VI Col6A1; assay: Expression of collagen VI alpha 1-chain by dermal fibroblasts (RNA); type: cell-based; details: human dermal fibroblasts; Rhamnose 1 mM, Vitamin C 50 μM, alone or associated; D3 or D5 not stated
Procedure: as §1, §2, §3, §4, §5

[3] = test system: keratinocytes (HaCat line); assay: Proliferation of keratinocytes in medium deficient in growth factors (Cyquant, Nile red, XTT probes); type: cell-based; details: HaCat keratinocytes in medium depleted in growth factors
Procedure: The keratinocytes (HaCat line) are cultured under two conditions: whole defined culture medium (standard condition) and culture medium deficient in growth factors. This deficient medium gives rise to a controlled delay in cell proliferation. Under these conditions, it is then possible to measure the effects of compounds capable of compensating for the deficiency in growth factors of the culture medium and thus of relaunching the cell multiplication and/or of stimulating cell metabolism.
The keratinocyte proliferation is measured by means of three markers on the same cell population: the level of DNA, which is proportional to the number of cells (Cyquant probe), the level of constituent polar lipids of cell membranes (Nile red probe) and the mitochondrial respiration, which reflects the general cell metabolism (XTT probe).

[4] = test system: type I procollagen; assay: Synthesis of procollagen 1 in reconstructed skin (indirect immunofluorescence); type: cell-based, human

| Compound | intensity of the biosynthesis of Collagen XII (Cola12A1) compared to the control that is at 100 [1] | intensity of the biosynthesis of Collagen VI (Col6A1) compared to the control that is at 100 [2] | keratinocyte proliferation (efficacy) ([3]; 500 μM) | level of DNA (Cyquant) ([3]; 1 mM, vs untreated control) | level of polar lipids (Nile red signal) ([3]; 1 mM, vs untreated control) | mitochondrial respiration (XTT signal) ([3]; 1 mM, vs untreated control) | procollagen 1 synthesis (green fluorescence) vs control skin ([4]; 1 mM, 120 hours) | procollagen 1 synthesis ([4]; 5 mM) |
| --- | --- | --- | --- | --- | --- | --- | --- | --- |
| O=C1O[C@H]([C@@H](O)CO)C(O)=C1O [Vitamin C, ascorbic acid] | 124 | 154 | – | – | – | – | – | – |
| C[C@H](O)[C@H](O)[C@@H](O)[C@@H](O)C=O [Rhamnose, L-rhamnose] | 115 | 109 | already show efficacy | significantly increased | significantly increased | significantly increased | stimulation; also recorded: marked increase | stimulation |
